“Also recorded” adds a separate entry of the source.
Assays:
[1] = system: HT29; assay: IC50 versus treatment time, HT29; type: cell-based; conditions: HT29 cancer cells
Method: The studies described herein discovered counter-intuitively that cancer cells and cancer stem cells requires much shorter exposure than normal cells to be killed by Compound 1. Normal cells can tolerate up to 24 hours of exposure to Compound 1. Furthermore, the studies here discovered that normal cells can recover after a short period of no-drug exposure, while cancer cells cannot recover once they are exposed to a certain concentration of the Compound 1 for at least 2 hours. Based on these studies, a special pharmacokinetic exposure [termed selective pharmacokinetic profile (SPP), or preferred pharmacokinetic profile (PPP), which is used interchangeably in this publication] was designed for Compound 1 using the data shown below in Table 14 for achieving selective antitumor activity in patients (FIG. 24).

[2] = Toxicity / body weight in tumor-bearing mice; type: in vivo
Method: All regimens were administered daily (qd). Body weights were evaluated periodically during treatment. Each point represents the mean±SEM of eight tumors. […] All regimens were administered daily (qd). Body weights were evaluated periodically during treatment. Each point represents the mean±SEM of eight tumors.
Daily examinations into the health status of each animal were also conducted. Body weights were checked every three days. Food and water was supplied daily according to the animal husbandry procedures of the facility. Treatment producing>20% lethality and or >20% net body weight loss were considered toxic. Results are expressed as mean tumor volume (mm^3)±SE. P Values<0.05 are considered to be statistically relevant.

[3] = Phase I clinical trial: safety and adverse events
[4] = Phase I patients, 20-2000 mg/day oral
[5] = Phase I, dose escalated from 20 mg to 2000 mg/day

Compound: CC(=O)c1cc2c(o1)C(=O)c1ccccc1C2=O [Compound 1, 2-acetyl-4H,9H-naphtho[2,3-b]furan-4,9-dione]
- IC50 ([1]; treatment time 12-24 h): < 500 nM
- IC50 ([1]; Homo sapiens, HT-29, treatment time 4-12 h): < 500 nM
- mice died during the treatment ([2]; about 90% pure, FaDu experiment (upper panel)): 4 mice
- mice died during the treatment ([2]; about 90% pure, MDA-231 experiment (lower panel)): 3 mice
- toxicity ([2]; about 90% pure, in GELUCIRE, po qd, FaDu or MDA-231 bearing mice (FIG. 13)): Significant toxicity
- toxicity ([2]; composition of particle size less than 5 micron, mice): no observed toxicity
- tolerability / toxicity ([2]; higher purity (about 95% or greater), po qd, FaDu or MDA-231 bearing mice (FIG. 14)): well-tolerated and showed no signs of toxicity
- tolerability in humans ([3]; 20 mg QD): good tolerability
- tolerability in humans ([3]; 500 mg TID): good tolerability
- Anorexia, Any Grade, # of Events [3, 4]: 4
- Anorexia, Any Grade, % of Total [3, 4]: 4.9%
- Anorexia, Grade 1, # of Events [3, 4]: 3
- Anorexia, Grade 1, % of Total [3, 4]: 3.7%
- Anorexia, Grade 2, # of Events [3, 4]: 1
- Anorexia, Grade 2, % of Total [3, 4]: 1.2%
- Anorexia, Grade 3, # of Events [3, 4]: 0
- Anorexia, Grade 3, % of Total [3, 4]: 0.0%
- Diarrhea, Any Grade, # of Events [3, 4]: 23
- Diarrhea, Any Grade, % of Total [3, 4]: 28.4%
- Diarrhea, Grade 1, # of Events [3, 4]: 20
- Diarrhea, Grade 1, % of Total [3, 4]: 24.7%
- Diarrhea, Grade 2, # of Events [3, 4]: 2
- Diarrhea, Grade 2, % of Total [3, 4]: 2.5%
- Diarrhea, Grade 3, # of Events [3, 4]: 2
- Diarrhea, Grade 3, % of Total [3, 4]: 2.5%
- Dysgusia, Any Grade, # of Events [3, 4]: 3
- Dysgusia, Any Grade, % of Total [3, 4]: 3.7%
- Dysgusia, Grade 1, # of Events [3, 4]: 3
- Dysgusia, Grade 1, % of Total [3, 4]: 3.7%
- Dysgusia, Grade 2, # of Events [3, 4]: 0
- Dysgusia, Grade 2, % of Total [3, 4]: 0.0%
- Dysgusia, Grade 3, # of Events [3, 4]: 0
- Dysgusia, Grade 3, % of Total [3, 4]: 0.0%
- Fatigue, Any Grade, # of Events [3, 4]: 4
- Fatigue, Any Grade, % of Total [3, 4]: 4.9%
- Fatigue, Grade 1, # of Events [3, 4]: 1
- Fatigue, Grade 1, % of Total [3, 4]: 1.2%
- Fatigue, Grade 2, # of Events [3, 4]: 2
- Fatigue, Grade 2, % of Total [3, 4]: 2.5%
- Fatigue, Grade 3, # of Events [3, 4]: 1
- Fatigue, Grade 3, % of Total [3, 4]: 1.2%
- Fever, Any Grade, # of Events [3, 4]: 2
- Fever, Any Grade, % of Total [3, 4]: 2.5%
- Fever, Grade 1, # of Events [3, 4]: 1
- Fever, Grade 1, % of Total [3, 4]: 1.2%
- Fever, Grade 2, # of Events [3, 4]: 1
- Fever, Grade 2, % of Total [3, 4]: 1.2%
- Fever, Grade 3, # of Events [3, 4]: 0
- Fever, Grade 3, % of Total [3, 4]: 0.0%
- Loose stools, Any Grade, # of Events [3, 4]: 2
- Loose stools, Any Grade, % of Total [3, 4]: 2.5%
- Loose stools, Grade 1, # of Events [3, 4]: 2
- Loose stools, Grade 1, % of Total [3, 4]: 2.5%
- Loose stools, Grade 2, # of Events [3, 4]: 0
- Loose stools, Grade 2, % of Total [3, 4]: 0.0%
- Loose stools, Grade 3, # of Events [3, 4]: 0
- Loose stools, Grade 3, % of Total [3, 4]: 0.0%
- Nausea, Any Grade, # of Events [3, 4]: 10
- Nausea, Any Grade, % of Total [3, 4]: 12.3%
- Nausea, Grade 1, # of Events [3, 4]: 8
- Nausea, Grade 1, % of Total [3, 4]: 9.9%
- Nausea, Grade 2, # of Events [3, 4]: 2
- Nausea, Grade 2, % of Total [3, 4]: 2.5%
- Nausea, Grade 3, # of Events [3, 4]: 0
- Nausea, Grade 3, % of Total [3, 4]: 0.0%
- Skin Rash, Any Grade, # of Events [3, 4]: 2
- Skin Rash, Any Grade, % of Total [3, 4]: 2.5%
- Skin Rash, Grade 1, # of Events [3, 4]: 2
- Skin Rash, Grade 1, % of Total [3, 4]: 2.5%
- Skin Rash, Grade 2, # of Events [3, 4]: 0
- Skin Rash, Grade 2, % of Total [3, 4]: 0.0%
- Skin Rash, Grade 3, # of Events [3, 4]: 0
- Skin Rash, Grade 3, % of Total [3, 4]: 0.0%
- Urine Color Change, Any Grade, # of Events [3, 4]: 2
- Urine Color Change, Any Grade, % of Total [3, 4]: 2.5%
- Urine Color Change, Grade 1, # of Events [3, 4]: 2
- Urine Color Change, Grade 1, % of Total [3, 4]: 2.5%
- Urine Color Change, Grade 2, # of Events [3, 4]: 0
- Urine Color Change, Grade 2, % of Total [3, 4]: 0.0%
- Urine Color Change, Grade 3, # of Events [3, 4]: 0
- Urine Color Change, Grade 3, % of Total [3, 4]: 0.0%
- Vomiting, Any Grade, # of Events [3, 4]: 14
- Vomiting, Any Grade, % of Total [3, 4]: 17.3%
- Vomiting, Grade 1, # of Events [3, 4]: 13
- Vomiting, Grade 1, % of Total [3, 4]: 16.0%
- Vomiting, Grade 2, # of Events [3, 4]: 1
- Vomiting, Grade 2, % of Total [3, 4]: 1.2%
- Vomiting, Grade 3, # of Events [3, 4]: 0
- Vomiting, Grade 3, % of Total [3, 4]: 0.0%
- abdominal cramps, Any Grade, # of Events [3, 4]: 6
- abdominal cramps, Any Grade, % of Total [3, 4]: 7.4%
- abdominal cramps, Grade 1, # of Events [3, 4]: 5
- abdominal cramps, Grade 1, % of Total [3, 4]: 6.2%
- abdominal cramps, Grade 2, # of Events [3, 4]: 1
- abdominal cramps, Grade 2, % of Total [3, 4]: 1.2%
- abdominal cramps, Grade 3, # of Events [3, 4]: 0
- abdominal cramps, Grade 3, % of Total [3, 4]: 0.0%
- decreased appetite, Any Grade, # of Events [3, 4]: 2
- decreased appetite, Any Grade, % of Total [3, 4]: 2.5%
- decreased appetite, Grade 1, # of Events [3, 4]: 1
- decreased appetite, Grade 1, % of Total [3, 4]: 1.2%
- decreased appetite, Grade 2, # of Events [3, 4]: 1
- decreased appetite, Grade 2, % of Total [3, 4]: 1.2%
- decreased appetite, Grade 3, # of Events [3, 4]: 0
- decreased appetite, Grade 3, % of Total [3, 4]: 0.0%
- dizzyness, Any Grade, # of Events [3, 4]: 2
- dizzyness, Any Grade, % of Total [3, 4]: 2.5%
- dizzyness, Grade 1, # of Events [3, 4]: 2
- dizzyness, Grade 1, % of Total [3, 4]: 2.5%
- dizzyness, Grade 2, # of Events [3, 4]: 0
- dizzyness, Grade 2, % of Total [3, 4]: 0.0%
- dizzyness, Grade 3, # of Events [3, 4]: 0
- dizzyness, Grade 3, % of Total [3, 4]: 0.0%
- weakness, Any Grade, # of Events [3, 4]: 5
- weakness, Any Grade, % of Total [3, 4]: 6.2%
- weakness, Grade 1, # of Events [3, 4]: 2
- weakness, Grade 1, % of Total [3, 4]: 2.5%
- weakness, Grade 2, # of Events [3, 4]: 3
- weakness, Grade 2, % of Total [3, 4]: 3.7%
- weakness, Grade 3, # of Events [3, 4]: 0
- weakness, Grade 3, % of Total [3, 4]: 0.0%
- tolerability of dose escalation in patients ([3]; Phase I, 20 mg to 2000 mg/day): without drug-induced adverse effects; also recorded: well tolerated
- dose-limiting toxicity [3, 5]: No dose-limiting toxicity was observed; also recorded: No dose limiting toxicity was observed
- maximum tolerated dose (MTD) [3, 5]: not reached; also recorded: neither MTD nor RP2D has been reached
